Laboratory results as given in US12630517B2, “Process for preparing large size isoxazoline particles” (Intervet Inc., priority 2017, dated 2026).

Legend:
Type in all cases: physicochemical
[1] = Volume weighted particle size distribution by laser diffraction (Sympatec Helos); details: for x50/d50 particle size dimension at end of recycle loop: in-process slurry at 54° C., after the recycle loop, before final cooling
Description: As used herein, particle size data reported are volume weighted as measured by conventional particle techniques well known to those skilled in the art, such as static light scattering (also known as laser diffraction), image analysis or sieving. More discussion of particle size measurement is provided below.
The volume weighted particle size can be measured by sieving, microscopy or laser diffraction (Malvern or Sympatec) The volume weighted particle size measurement can be performed with a Malvern Mastersizer 2000 with the Hydro 2000G measuring cell, or with a Horiba LA-910 laser scattering particle size distribution analyzer. The volume weighted particle size can be measured by a Sympatec Helos instrument.
(§1) The volume weighted particle size of the fluralaner crystals was measured by laser diffraction (Sympatec Helos) to determine the particle size distribution. The mechanical resiliency was also determined during a pressure titration experiment. […] In this case, this material is the product of the previous commercial process using an unseeded, distillative crystallization process from an ethyl acetate, toluene solvent system. Of note is the lower particle size and general wider distribution of sizes of the particles.

[2] = Pressure titration for mechanical resiliency (Sympatec HELOS), 1 to 3 bar dispersion pressure; details: for reduction in x50/d50 from the pressure titration from 1 bar to 3 bar: dried particles of the example (FIG. 10, FIG. 15)
Description: Mechanical resiliency is the resistance of crystals or particles to break into smaller crystals or particles when exposed to pressure or stress from other sources. Mechanical resiliency can be measured by a pressure titration using the Sympatec HELOS. This instrument can simultaneously measure the particle size distribution. In this experiment, pressure is applied to the crystals to disperse or separate them one from another. The change in the particle size distribution measurement of d50 is monitored as the pressure on the crystals is increased from 1 bar to 3 bars. Preferably, the isoxazoline compound particles of the subject invention will not decrease their particle size distribution measurement of d50 by more than 30-40% when the dispersion pressure is increased from 1 to 3 bar.
as §1
In this experiment, the particle size distribution was monitored as the particles are exposed to increasing pressure from 1 bar to 3 bar. […] Moreover, the particle size distribution curve broadens and shifts towards smaller particle sizes. This is evidence that these particles are being broken under the increased pressure and is an indication that the particles were very thin.

[3] = Scanning electron microscopy of particles
Description: Scanning electron microscopy (SEM) is an analytical instrument that uses a focused beam of high-energy electrons to generate a variety of signals at the surface of solid specimens. The signals reveal information about the sample including external morphology (texture), chemical composition, and crystalline structure and orientation of materials making up the sample. FIG. 8 is a scanning electron microscopy image of fluralaner particles that were not produced the inventive process. Of note is that these crystals are rather thin. FIG. 9 is a scanning electron microscopy image of fluralaner particles that were produce by the inventive process. In contrast to the particles shown in FIG. 8, these particles are large (around 100 μm) and thick (around 10-20 μm).

[4] = Particle size by wet method, Microtrac static light scattering; details: FIG. 13
Description: FIG. 13—Particle size distribution of the material made from Example 4. […] The particle size measurement for this sample was conducted with a wet method using a Microtrac static light scattering system.

[5] = FIG. 9, particles produced by the inventive process

In the case of `Cc1cc(C2=NOC(c3cc(Cl)cc(Cl)c3)(C(F)(F)F)C2)ccc1C(=O)NCC(=O)NCC(F)(F)F` (stereo not drawn) [Example 3], the “x50 of resulting material” value ([1]; FIG. 10, dried particles) is reported as 108, the “x50/d50 particle size dimension at end of recycle loop” value (shortened to “x50/d50 particle size dimension”) [1] is reported as “approximately 45 μm” and the “reduction in x50/d50 from the pressure titration from 1 bar to 3 bar” value [2] is reported as “approximately 24%”.

For `Cc1cc(C2=NOC(c3cc(Cl)cc(Cl)c3)(C(F)(F)F)C2)ccc1C(=O)NCC(=O)NCC(F)(F)F` (stereo not drawn) [Example 5], the “average d50 of resulting material” value ([1]; FIG. 15, crystallised from 5:3 toluene:ethyl acetate) was 99 μm, the “x50/d50 particle size dimension” value [1] was “approximately 50 μm” and the “reduction in x50/d50 from the pressure titration from 1 bar to 3 bar” value [2] was “approximately 20%”.

For `Cc1cc(C2=NOC(c3cc(Cl)cc(Cl)c3)(C(F)(F)F)C2)ccc1C(=O)NCC(=O)NCC(F)(F)F` (stereo not drawn) [fluralaner, 4-[5-(3,5-Dichlorophenyl)-5-trifluoromethyl-4,5-dihydroisoxazol-3-yl]-2-methyl-N-[(2,2,2-trifluoro-ethylcarbamoyl)-methyl]-benzamide], the “particle thickness by SEM” value ([3]; FIG. 8, particles not produced by the inventive process) was “rather thin”, the “particle size by SEM” value [3, 5] was “around 100 μm” and the “particle thickness by SEM” value [3, 5] was 10-20 μm. For the same compound, the “particle size (x50) at 2 bar dispersing pressure” value ([2]; FIG. 5, crystals not produced by the inventive process, 2 bar) was 80 μm, the “particle size (d50) at 1 bar” value ([2]; FIG. 6, crystals produced by the inventive process, 1 bar) was 100 μm and the “particle size (d50) at 3 bar” value ([2]; FIG. 6, crystals produced by the inventive process, 3 bar) was 73 μm. The “loss of d50 in pressure titration” value ([2]; FIG. 7, additional batch produced by the inventive process) was “around 35%”, the “d50 after pressure titration” value ([2]; FIG. 7, additional batch produced by the inventive process, after pressure increase) was “around 67 μm” and the “original d50” value ([2]; FIG. 7, additional batch produced by the inventive process, before pressure increase) was “around 103 μm”. The “d50 reduction in pressure titration test” value ([2]; FIG. 10, crystals produced by the inventive process, % of the original value) was “around 25%”.

In the case of `Cc1cc(C2=NOC(c3cc(Cl)cc(Cl)c3)(C(F)(F)F)C2)ccc1C(=O)NCC(=O)NCC(F)(F)F` (stereo not drawn) [Example 4], the “x50/d50 particle size dimension” value [1] is reported as “approximately 40 μm”, the d10 [4] is reported as 47.3 μm and the d50 [4] is reported as 103 μm. The d90 [4] was 158.8 μm.

For `Cc1cc(C2=NOC(c3cc(Cl)cc(Cl)c3)(C(F)(F)F)C2)ccc1C(=O)NCC(=O)NCC(F)(F)F` (stereo not drawn) [Example 1], the “x50/d50 particle size dimension” value [1] was “approximately 40 μm”.
